Reference: ChEMBL document CHEMBL1128524, “The histamine H1-receptor antagonist binding site. A stereoselective pharmacophoric model based upon (semi-)rigid H1-antagonists and including a known interaction site on the receptor” (J Med Chem, 1995)

Key:
[1] = target: T1, Histamine H1 receptor (Cavia porcellus, UniProt P31389); experiment: (§1) Potency against histamine H1 receptor on guinea pig ileum; assay type: tissue-based; details: read-out: pA2 (converted)
[2] = target: T1, Histamine H1 receptor; experiment: Inhibition of [3H]mepyramine binding with histamine H1 receptor in guinea pig cerebellum membranes; assay type: cell membranes, Membrane
[3] = target: Histamine H1 receptor (Cavia porcellus) (UniProt P31389); experiment: as §1; assay type: tissue-based
[4] = target: T1, Histamine H1 receptor; experiment: Inhibition of [3H]mepyramine binding with histamine H1 receptor in guinea pig cerebellum membranes after 30 min; assay type: cell membranes, Membrane
[5] = target: T1, Histamine H1 receptor; experiment: as §1

T1 sequence (P31389 whole entry): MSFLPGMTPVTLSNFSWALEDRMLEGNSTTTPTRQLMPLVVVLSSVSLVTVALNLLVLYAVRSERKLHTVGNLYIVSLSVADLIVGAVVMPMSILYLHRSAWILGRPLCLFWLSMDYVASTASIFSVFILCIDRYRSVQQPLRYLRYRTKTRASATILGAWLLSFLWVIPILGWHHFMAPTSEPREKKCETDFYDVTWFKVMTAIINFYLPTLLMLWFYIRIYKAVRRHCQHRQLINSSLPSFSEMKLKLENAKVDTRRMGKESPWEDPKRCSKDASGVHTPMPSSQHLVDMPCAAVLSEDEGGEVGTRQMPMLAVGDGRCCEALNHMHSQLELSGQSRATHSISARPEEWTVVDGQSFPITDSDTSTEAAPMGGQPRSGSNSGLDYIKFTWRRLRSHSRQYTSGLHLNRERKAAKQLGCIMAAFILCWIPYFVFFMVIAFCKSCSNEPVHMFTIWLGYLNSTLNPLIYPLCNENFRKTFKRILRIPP
Sequence of Histamine H1 receptor (Cavia porcellus) (P31389 whole entry): as above

| SMILES | Kb [1] [nM] | Ki [4] [nM] | other results |
| --- | --- | --- | --- |
| Cc1ccc([C@@H](OCCN(C)C)c2ccccc2)cc1 | 158 |  | Ki [2]: 12.3 nM |
| c1ccc2c(c1)Sc1ccccc1N2CC1CN2CCC1CC2 (configuration not stated) |  |  | pED50 [3]: 7.2 |
| Cc1ccc([C@H](OCCN(C)C)c2ccccc2)cc1 | 2 | 12.3 |  |
| c1ccc2c(c1)Sc1ccccc1N2C1CN2CCC1CC2 (configuration not stated) |  |  | pED50 [3]: 7.3 |
| NC1=NCC2c3ccccc3Cc3ccccc3N12 (configuration not stated) [EPINASTINE] |  | 1.41 | IC50 [5]: 1.58 nM |
| CN1CCC2=C(C1)C(c1ccccc1)c1ccccc12 (configuration not stated) [PHENINDAMINE] | 1.58 | 6.31 |  |
| Cc1ccc(/C(=C\CN2CCCC2)c2ccccn2)cc1 [TRIPROLIDINE] | 0.126 | 1.66 |  |
